Experimental data taken from patent publication US10947248B2, “4β-amidotriazole linked podophyllotoxin derivatives as potential anticancer agents” (COUNCIL OF SCIENTIFIC & INDUSTRIAL RESEARCH, priority 2016, dated 2021).
Like-named read-outs stand apart in the source and are kept apart here.

Experiments:
[1] = test system: Hela (human cervical cancer); experiment: MTT in vitro cytotoxicity assay, Hela; type: cell-based; settings: read-out: IC50 Hela
[2] = test system: MCF-7 (human breast cancer); experiment: MTT in vitro cytotoxicity assay, MCF-7; type: cell-based; settings: read-out: IC50 MCF-7
[3] = test system: DU-145 (human prostate cancer); experiment: MTT in vitro cytotoxicity assay, DU-145; type: cell-based; settings: read-out: IC50 DU-145
[4] = test system: A549 (human lung cancer); experiment: MTT in vitro cytotoxicity assay, A549; type: cell-based; settings: read-out: IC50 A549
[5] = test system: HepG2 (liver cancer); experiment: MTT in vitro cytotoxicity assay, HepG2; type: cell-based; settings: Homo sapiens, read-out: IC50 HepG2
[6] = test system: HT-29 (colon cancer); experiment: MTT in vitro cytotoxicity assay, HT-29; type: cell-based; settings: Homo sapiens, read-out: IC50 HT-29
[7] = test system: human cancer cell lines (Hela, MCF-7, DU-145, A549, HepG2, HT-29); experiment: MTT in vitro cytotoxicity assay, all tested human cancer cell lines; type: cell-based; settings: range over Hela, read-out: IC50 values ranging over all tested human cancer cell lines
Excerpt: The IC50 values (in μM) for compounds 8a, 8c, 8n, 8p, 9c and 9p have been illustrated in Table 1.

Row | Structure (SMILES) | melting point [°C] | IC50 ([1]; HeLa, 48 h) [nM] | IC50 ([2]; MCF7, 48 h) [nM] | IC50 ([3]; DU-145, 48 h) [nM] | IC50 ([4]; A549, 48 h) [nM] | IC50 ([5]; HepG2, 48 h) [nM] | IC50 ([6]; HT-29, 48 h) [nM] | IC50 [7] [nM] | IC50 ([1]; Hela, 48 h of drug treatment, average of three individual experiments) [nM] | IC50 ([2]; MCF7, MCF-7, 48 h of drug treatment, average of three individual experiments) [nM] | IC50 ([3]; DU-145, 48 h of drug treatment, average of three individual experiments) [nM] | IC50 ([4]; A549, 48 h of drug treatment, average of three individual experiments) [nM] | IC50 ([5]; HepG2, 48 h of drug treatment, average of three individual experiments) [nM] | IC50 ([6]; HT-29, 48 h of drug treatment, average of three individual experiments) [nM]
1 | COc1cc(OC)cc(-n2cc(C(=O)N[C@@H]3c4cc5c(cc4[C@@H](c4cc(OC)c(OC)c(OC)c4)[C@H]4C(=O)OC[C@@H]43)OCO5)nn2)c1 | 145 to 148 | – | – | – | – | – | – | – | – | – | – | – | – | –
2 | COc1cc([C@@H]2c3cc4c(cc3[C@@H](NC(=O)c3cn(-c5cc(OC)c(OC)c(OC)c5)nn3)[C@H]3COC(=O)[C@H]23)OCO4)cc(OC)c1OC | 181 to 183 | – | – | – | – | – | – | – | – | – | – | – | – | –
3 | COc1cc([C@@H]2c3cc4c(cc3[C@@H](NC(=O)c3cn(-c5ccc6c(c5)OCO6)nn3)[C@H]3COC(=O)[C@H]23)OCO4)cc(OC)c1OC | 188 to 191 | – | – | – | – | – | – | – | – | – | – | – | – | –
4 | COc1cc(Cn2cc(C(=O)N[C@@H]3c4cc5c(cc4[C@@H](c4cc(OC)c(OC)c(OC)c4)[C@H]4C(=O)OC[C@@H]43)OCO5)nn2)cc(OC)c1OC | 189 to 192 | – | – | – | – | – | – | – | – | – | – | – | – | –
5 | COc1cc([C@@H]2c3cc4c(cc3[C@@H](NC(=O)c3cn(-c5ccccc5)nn3)[C@H]3COC(=O)[C@H]23)OCO4)cc(OC)c1OC [Compound 8a, N-((5S,5aS,8aR,9R)-8-oxo-9-(3,4,5-trimethoxyphenyl)-5,5a,6,8,8a,9-hexahydrofuro[3′,4′:6,7]naphtho[2,3-d][1,3]dioxol-5-yl)-1-phenyl-1H-1,2,3-triazole-4-carboxamide] | 170 to 172 | 2470 ± 240 | 1450 ± 460 | 1310 ± 110 | 1820 ± 110 | 1940 ± 130 | 5370 ± 740 | 700 to 4000 | – | – | – | – | – | –
6 | COc1ccc(-n2cc(C(=O)N[C@@H]3c4cc5c(cc4[C@@H](c4cc(OC)c(OC)c(OC)c4)[C@H]4C(=O)OC[C@@H]43)OCO5)nn2)cc1 [Compound 8c, 1-(4-methoxyphenyl)-N-((5S,5aS,8aR,9R)-8-oxo-9-(3,4,5-trimethoxyphenyl)-5,5a,6,8,8a,9-hexahydrofuro[3′,4′:6,7]naphtho[2,3-d][1,3]dioxol-5-yl)-1H-1,2,3-triazole-4-carboxamide] | 195 to 197 | 6490 ± 220 | 1110 ± 100 | 990 ± 70 | 1610 ± 380 | 2790 ± 540 | 11400 ± 1660 | 700 to 4000 | – | – | – | – | – | –
7 | COc1cc([C@@H]2c3cc4c(cc3[C@@H](NC(=O)c3cn(-c5ccc(C(F)(F)F)cc5)nn3)[C@H]3COC(=O)[C@H]23)OCO4)cc(OC)c1OC [Compound 8n, N-((5S,5aS,8aR,9R)-8-oxo-9-(3,4,5-trimethoxyphenyl)-5,5a,6,8,8a,9-hexahydrofuro[3′,4′:6,7]naphtho[2,3-d][1,3]dioxol-5-yl)-1-(4-(trifluoromethyl)phenyl)-1H-1,2,3-triazole-4-carboxamide] | 190 to 194 | 1210 ± 270 | 1350 ± 70 | 890 ± 20 | 1960 ± 80 | 1210 ± 270 | 4400 ± 50 | 700 to 4000 | – | – | – | – | – | –
8 | COc1cc([C@@H]2c3cc4c(cc3[C@@H](NC(=O)c3cn(-c5ccc(Cl)cc5)nn3)[C@H]3COC(=O)[C@H]23)OCO4)cc(OC)c1OC [Compound 8p, 1-(4-chlorophenyl)-N-((5S,5aS,8aR,9R)-8-oxo-9-(3,4,5-trimethoxyphenyl)-5,5a,6,8,8a,9-hexahydrofuro[3′,4′:6,7]naphtho[2,3-d][1,3]dioxol-5-yl)-1H-1,2,3-triazole-4-carboxamide] | 222 to 225 | 780 | 970 | 700 | 1200 | 780 | 4110 | 700 to 4110 | – | – | – | – | – | –
9 | COc1ccc(Cn2cc(C(=O)N[C@@H]3c4cc5c(cc4[C@@H](c4cc(OC)c(OC)c(OC)c4)[C@H]4C(=O)OC[C@@H]43)OCO5)nn2)cc1 [Compound 9c, 1-(4-methoxybenzyl)-N-((5S,5aS,8aR,9R)-8-oxo-9-(3,4,5-trimethoxyphenyl)-5,5a,6,8,8a,9-hexahydrofuro[3′,4′:6,7]naphtho[2,3-d][1,3]dioxol-5-yl)-1H-1,2,3-triazole-4-carboxamide] | 174 to 177 | 3460 ± 60 | 3320 ± 550 | 1760 ± 270 | 5820 ± 430 | 1960 ± 70 | 17500 ± 340 | 700 to 4000 | – | – | – | – | – | –
10 | COc1cc([C@@H]2c3cc4c(cc3[C@@H](NC(=O)c3cn(Cc5ccc(Cl)cc5)nn3)[C@H]3COC(=O)[C@H]23)OCO4)cc(OC)c1OC [Compound 9p, 1-(4-chlorobenzyl)-N-((5S,5aS,8aR,9R)-8-oxo-9-(3,4,5-trimethoxyphenyl)-5,5a,6,8,8a,9-hexahydrofuro[3′,4′:6,7]naphtho[2,3-d][1,3]dioxol-5-yl)-1H-1,2,3-triazole-4-carboxamide] | 180 to 184 | 3570 ± 160 | 5300 ± 390 | 2370 ± 80 | 8060 ± 60 | 3540 ± 370 | 23700 ± 380 | 700 to 4000 | – | – | – | – | – | –
11 | COc1cc([C@@H]2c3cc4c(cc3[C@@H](O[C@@H]3O[C@@H]5CO[C@@H](C)O[C@H]5[C@H](O)[C@H]3O)[C@H]3COC(=O)[C@H]23)OCO4)cc(OC)c1O [Etoposide, reference compound] | – | – | – | – | – | – | – | – | 2710 ± 520 | 1620 ± 140 | 2350 ± 50 | 1970 ± 170 | 2840 ± 270 | 1870 ± 310
12 | COc1cc([C@@H]2c3cc4c(cc3[C@H](O)[C@H]3COC(=O)[C@H]23)OCO4)cc(OC)c1OC [Podophyllotoxin] | – | 3450 ± 290 | 3060 ± 240 | 4150 ± 630 | 4600 ± 420 | 6630 ± 170 | 4780 ± 160 | – | – | – | – | – | – | –
